Measurements published in US20240091317A1, “USE OF GLP-2 ANALOGUES IN PATIENTS WITH RENAL INSUFFICIENCY” (Zealand Pharma A/S, priority 2020, published 2024).
Values belong to the molecule of their own block, whether it stands above or below them.

Key:
[1] = in particular moderate or severe renal impairment, or ESRD; cited from earlier work
[2] = in vivo; cited from earlier work
[3] = Phase 1 trial: PK of a single subcutaneous dose of 10 mg glepaglutide in subjects with severe renal impairment/ESRD vs normal renal function; type: in vivo, human
Experimental: The study was designed as a two-stage design, open-label, multi-center, non-randomized trial evaluating the PK of a single, subcutaneous dose of 10 mg glepaglutide in subjects with varying degrees of renal function. The renal function was calculated by the estimated glomerular filtration rate (eGFR) according to the Modification of Diet in Renal Disease (MDRD) equation.
Sixteen Caucasian subjects were enrolled, 4 with end stage renal disease (ESRD) not on dialysis (eGFR<15 mL/min), 4 with severe renal impairment (eGFR<30 mL/min) and 8 matching controls with normal renal function (eGFR>90 mL/min) (Table 1). Demographics, except eGFR, was similar across groups (Table 1).
Glepaglutide (ZP1848, 10 mg) was provided in a single-use vial containing 1 mL (an extractable volume of 0.5 mL) of a clear, colourless solution for subcutaneous injection, with a concentration of 20 mg/mL glepaglutide.
PK-blood samples were collected over a 14 day period following a single dose of 10 mg glepaglutide in the abdomen. The PK-samples were analyzed for glepaglutide, ZP2469 and ZP2711 using a GLP-validated LC/MS/MS assay.
The primary PK parameters were area under the curve between dose and last measurable concentration (AUCt), extrapolated to infinity (AUCinf) and calculated from 0 to 168 hours (AUC0-168) and the maximum plasma concentration (Cmax), which were computed for glepaglutide, ZP2469, ZP2711. A constructed analyte “glepaglutide-total” (glepaglutide+ZP2469+ZP2711) was used for the primary endpoint, and analysed using a non-compartmental approach.

Molecule: CC[C@H](C)[C@H](NC(=O)[C@H](Cc1ccccc1)NC(=O)[C@H](CC(=O)O)NC(=O)[C@H](CCCNC(=N)N)NC(=O)[C@H](C)NC(=O)[C@H](C)NC(=O)[C@H](CC(C)C)NC(=O)[C@H](CC(N)=O)NC(=O)[C@H](CC(=O)O)NC(=O)[C@H](CC(C)C)NC(=O)[C@@H](NC(=O)[C@@H](NC(=O)[C@H](CC(N)=O)NC(=O)[C@H](CCSC)NC(=O)[C@H](CCC(=O)O)NC(=O)[C@H](CC(=O)O)NC(=O)[C@H](CO)NC(=O)[C@H](Cc1ccccc1)NC(=O)[C@H](CO)NC(=O)CNC(=O)[C@H](CC(=O)O)NC(=O)CNC(=O)[C@@H](N)Cc1c[nH]cn1)[C@@H](C)O)[C@@H](C)CC)C(=O)N[C@@H](CC(N)=O)C(=O)N[C@@H](Cc1c[nH]c2ccccc12)C(=O)N[C@@H](CC(C)C)C(=O)N[C@H](C(=O)N[C@@H](CCC(N)=O)C(=O)N[C@H](C(=O)N[C@@H](CCCCN)C(=O)N[C@H](C(=O)N[C@H](C(=O)N[C@@H](CC(=O)O)C(=O)O)[C@@H](C)O)[C@@H](C)CC)[C@@H](C)O)[C@@H](C)CC [teduglutide]
Clearance in subjects with renal dysfunction [1]: impaired

Molecule: GLP-2 [3-33]: truncated GLP-2 [3-33] (DGSFSDEMNTILDNLAARDFINWLIQTKITD; Glucagon-like peptide 2; UniProt P01275 148-178, looked up, fragment)
Half-life in humans [2]: 27 min

Clearance in patients with renal impairment ([3]; human, in vivo): cleared normally
Difference in total exposure (AUC0-168h) and peak plasma concentrations (Cmax), severe renal impairment/ESRD vs normal renal function ([3]; single SC dose): no clinically relevant difference
Difference in primary PK parameters (AUCt, AUCinf, AUC0-168, Cmax), severe renal impairment and ESRD vs healthy matched subjects ([3]; single SC dose 10 mg glepaglutide): no statistically significant differences
Molecule: H-HGEGTFSSELATILDALAARDFIAWLIATKITDKKKKKK-NH2 [ZP1848]

Molecule: Hy-His-Ala-Asp-Gly-Ser-Phe-Ser-Asp-Glu-Met-Asn-Thr-Ile-Leu-Asp-Asn-Leu-Ala-Ala-Arg-Asp-Phe-Ile-Asn-Trp-Leu-Ile-Gln-Thr-Lys-Ile-Thr-Asp-OH [GLP-2 [1-33]]
Half-life in humans [2]: around 7 minutes
